Experimental findings from patent US9700546B2, “Trivalent chromium compounds, compositions and methods of use” (INTERHEALTH NUTRACEUTICALS, INC., priority 2006, dated 2017) are described below.

The test system of data set [1] is Obese Zucker rats. The settings on record: rat, in vivo.
Data set [2] has as its system Obese Zucker rats. In words: In vivo assessment in obese Zucker rats: key biological parameters (fasting glucose, HbA1c, vitamin C, GSH, RBC lipid peroxidation). The settings on record: obese Zucker rats, daily 400 μg Cr(III)/kg, 8 weeks, mean; for RBC Lipid Peroxidase: malondialdehyde by thiobarbituric acid; for Fasting Glucose: fasted overnight; for Vitamin C: plasma.

Data set [3] has as its system Obese Zucker rats. In words: In vivo assessment in obese Zucker rats: vascular inflammation markers (MCP-1, CRP, RBP-4, leptin, ICAM, adiponectin). The settings on record: obese Zucker rats, daily 400 μg Cr(III)/kg, 8 weeks, mean; for Adiponectin / CRP / MCP-1 / ICAM: plasma, ELISA.
In data set [4] the test system is Obese Zucker rats. Briefly: In vivo assessment in obese Zucker rats: other vascular inflammation markers (cAMP, TNFα, IL-6, OxyDNA). To be noted: obese Zucker rats, daily 400 μg Cr(III)/kg, 8 weeks, mean ± SE; for OxyDNA: oxidative DNA damage.
In data set [5] the test system is Obese Zucker rats. Briefly: In vivo assessment in obese Zucker rats: blood lipid profile (total cholesterol, triglycerides, HDL). To be noted: daily 400 μg Cr(III)/kg, 8 weeks, mean.
Data set [6] relates to Obese Zucker rats. Briefly: In vivo assessment in obese Zucker rats: body weight and food intake. To be noted: obese Zucker rats, daily 400 μg Cr(III)/kg, mean; for Food Intake 5 wks: at 5 weeks; for Food Intake 7 wks: at 7 weeks.
The test system of data set [7] is Obese Zucker rats. Briefly: In vivo assessment in obese Zucker rats: clinical chemistry (AP, BUN, CRT, AST, ALT). To be noted: obese Zucker rats; mean ± SE.

Where two headings read alike, the source gives them in different places.

As to Chromium Cinnamate [CrCin], in the data set on Obese Zucker rats [1], the “ALT (Alanine Aminotransferease)” value came out at 158.71 u/L, the “AP (Alkaline phosphatase)” value is on record as 30.71 u/L, the “AST (Aspartate Aminotransferase)” value is given as 230.14 u/L and the “Anion Gap” value is reported as 29.86. In the data set on Obese Zucker rats [1], the “BUN (Blood Urea Nitrogen)” value was 21.43 mg/dL, the “BUN/CRT Ratio” value came out at 51.86, the “CRT (Creatinine)” value is given as 0.41 mg/dL and the “Total Bilirubin” value was determined as 0.10 mg/dL. Besides, in the data set with Obese Zucker rats [2], the “RBC Lipid Peroxidase” value is reported as 3.12 nmol/mL, the “Fasting Glucose” value is reported as 557.37 mg/dL, the GSH was found to be 5.00 µmol/g and the HbA1c is recorded as 15.61%. In the data set with Obese Zucker rats [3], this substance had a Leptin of 379.18 pg/mL, an RBP-4 of 47905.13 ng/mL, an Adiponectin of 11507.60 ng/mL and a CRP of 587.35 ng/mL. Besides, in the data set on Obese Zucker rats [3], the MCP-1 turned out to be 2428.69 pg/mL. In the data set on Obese Zucker rats [4], this substance showed an IL-6 of 92.94 ± 13.21 pg/mL, a TNFα of 8.62 ± 4.90 pg/mL, a cAMP of 29.24 ± 0.61 pmol/mL and an OxyDNA of 48.71 ± 1.25 ng/mL. Moreover, in the data set on Obese Zucker rats [5], the HDL is 65.44 mg/dL, the “Total Chol/HDL” value was determined as 2.94 ratio, the “Total Cholesterol” value is listed as 191.11 mg/dL and the Triglyceride is on record as 507.35 mg/dL.
As to “Chromium Dinicotinate Argininate [Cr(nic)2Arg]”, in the data set with Obese Zucker rats [2], the “RBC Lipid Peroxidase” value turned out to be 2.47 nmol/mL, the “Fasting Glucose” value came out at 628.87 mg/dL, the GSH amounted to 4.89 µmol/g and the HbA1c turned out to be 16.56%. Further, the “Vitamin C” value with Obese Zucker rats [2] is given as 0.14 mg %. In the data set with Obese Zucker rats [3], this substance registered a Leptin of 335.80 pg/mL, an RBP-4 of 52537.50 ng/mL, an Adiponectin of 9279.38 ng/mL and a CRP of 628.49 ng/mL. In the data set with Obese Zucker rats [3], this substance yielded an ICAM of 18591.76 pg/mL and an MCP-1 of 3235.62 pg/mL. In the data set with Obese Zucker rats [6], the “Food Intake 5 wks” value stood at 40.22 g/day and the “Food Intake 7 wks” value amounted to 45.28 g/day. In the data set on Obese Zucker rats [4], this substance showed an IL-6 of 92.35 ± 2.79 pg/mL, a TNFα of 17.84 ± 1.26 pg/mL, a cAMP of 38.96 ± 3.88 pmol/mL and an OxyDNA of 58.26 ± 2.57 ng/mL. In the data set on Obese Zucker rats [5], the HDL is listed as 69.78 mg/dL, the “Total Chol/HDL” value came out at 3.00 ratio, the “Total Cholesterol” value is reported as 186.16 mg/dL and the Triglyceride was found to be 554.65 mg/dL.
With “Chromium Dinicotinate Aspartate [Cr(nic)2Asp]”, in the data set on Obese Zucker rats [2], the “RBC Lipid Peroxidase” value was determined as 2.02 nmol/mL, the “Fasting Glucose” value is listed as 496.33 mg/dL, the GSH was 5.15 µmol/g and the HbA1c amounted to 15.62%. Besides, in the data set on Obese Zucker rats [2], the “Vitamin C” value is on record as 0.12 mg %. In the data set on Obese Zucker rats [3], the Leptin is on record as 406.15 pg/mL, the RBP-4 was determined as 57870.00 ng/mL, the Adiponectin worked out at 12078.33 ng/mL and the CRP came out at 602.51 ng/mL. Further, in the data set on Obese Zucker rats [3], the ICAM is on record as 17985.91 pg/mL and the MCP-1 is 1431.68 pg/mL. In the data set with Obese Zucker rats [6], the “Food Intake 5 wks” value is 38.90 g/day and the “Food Intake 7 wks” value worked out at 40.00 g/day. In the data set with Obese Zucker rats [4], this substance returned an IL-6 of 88.91 ± 2.25 pg/mL, a cAMP of 27.95 ± 1.22 pmol/mL and an OxyDNA of 41.92 ± 1.46 ng/mL. For the same substance, in the data set on Obese Zucker rats [5], the HDL is listed as 70.17 mg/dL, the “Total Chol/HDL” value is recorded as 2.88 ratio, the “Total Cholesterol” value came to 202.17 mg/dL and the Triglyceride came out at 699.67 mg/dL.
“Chromium Dinicotinate Glycinate [Cr(nic)2Gly, reference compound]”: in the data set with Obese Zucker rats [2], the “RBC Lipid Peroxidase” value amounted to 2.11 nmol/mL, the “Fasting Glucose” value is 448.29 mg/dL, the GSH turned out to be 4.86 µmol/g and the HbA1c amounted to 14.45%. In addition, the “Vitamin C” value with Obese Zucker rats [2] turned out to be 0.15 mg %. In addition, in the data set on Obese Zucker rats [3], the Leptin is given as 461.16 pg/mL, the RBP-4 amounted to 54900.00 ng/mL, the Adiponectin amounted to 12552.86 ng/mL and the CRP was 535.98 ng/mL. For the same substance, in the data set with Obese Zucker rats [3], the ICAM was found to be 16691.40 pg/mL and the MCP-1 is listed as 2897.61 pg/mL. In addition, in the data set on Obese Zucker rats [6], the “Food Intake 5 wks” value was determined as 34.29 g/day and the “Food Intake 7 wks” value worked out at 37.14 g/day. In the data set on Obese Zucker rats [4], the IL-6 is listed as 91.96 ± 3.83 pg/mL, the cAMP came to 31.40 ± 1.57 pmol/mL and the OxyDNA was 45.62 ± 1.86 ng/mL. In the data set on Obese Zucker rats [5], the HDL was 64.57 mg/dL, the “Total Chol/HDL” value was determined as 3.00 ratio, the “Total Cholesterol” value is recorded as 193.14 mg/dL and the Triglyceride is listed as 610.33 mg/dL.
Take “Chromium Dinicotinate Phenylalanine [Cr(nic)2Phe]”: in the data set with Obese Zucker rats [2], the “RBC Lipid Peroxidase” value is 1.97 nmol/mL, the “Fasting Glucose” value worked out at 510.43 mg/dL, the GSH is 5.05 µmol/g and the HbA1c stood at 15.95%. For the same substance, the “Vitamin C” value in the data set with Obese Zucker rats [2] is reported as 0.15 mg %. Further, in the data set on Obese Zucker rats [3], the Leptin was 351.16 pg/mL, the RBP-4 is recorded as 53891.43 ng/mL, the Adiponectin is reported as 12712.86 ng/mL and the CRP is 633.55 ng/mL. Besides, in the data set with Obese Zucker rats [3], the ICAM worked out at 17480.50 pg/mL and the MCP-1 is 1755.25 pg/mL. In the data set on Obese Zucker rats [6], the “Food Intake 5 wks” value was found to be 38.16 g/day and the “Food Intake 7 wks” value worked out at 39.22 g/day. Also, in the data set with Obese Zucker rats [4], the IL-6 amounted to 84.82 ± 1.60 pg/mL, the cAMP is listed as 31.60 ± 1.22 pmol/mL and the OxyDNA came to 40.63 ± 3.74 ng/mL. Also, in the data set on Obese Zucker rats [5], the HDL is given as 70.43 mg/dL, the “Total Chol/HDL” value stood at 2.87 ratio, the “Total Cholesterol” value turned out to be 201.71 mg/dL and the Triglyceride came to 583.00 mg/dL.
On to “Chromium Glucodinicotinate [Cr(nic)2Gluc]”, for which, in the data set with Obese Zucker rats [1], the “BUN/CRT Ratio” value is recorded as 53.67. In the data set with Obese Zucker rats [2], the “RBC Lipid Peroxidase” value was 2.00 nmol/mL, the “Fasting Glucose” value is 474.38 mg/dL, the GSH was 4.62 µmol/g and the HbA1c is reported as 15.21%. Besides, in the data set with Obese Zucker rats [7], the “ALT (Alanine Aminotransferease)” value is given as 138.00 u/L, the “AP (Alkaline phosphatase)” value came out at 27.00 u/L, the “AST (Aspartate Aminotransferase)” value is reported as 238.67 u/L and the “Anion Gap” value was 29.00. Moreover, in the data set with Obese Zucker rats [7], the “BUN (Blood Urea Nitrogen)” value is given as 21.33 mg/dL, the “CRT (Creatinine)” value was 0.40 mg/dL and the “Total Bilirubin” value is listed as 0.10 mg/dL. In addition, in the data set on Obese Zucker rats [3], the Leptin came out at 388.37 pg/mL, the RBP-4 is listed as 48851.14 ng/mL, the Adiponectin was 11448.39 ng/mL and the CRP is given as 530.74 ng/mL. This substance also had an MCP-1 in the data set with Obese Zucker rats [3] of 1977.46 pg/mL. For the same substance, in the data set on Obese Zucker rats [4], the IL-6 stood at 81.59 ± 5.21 pg/mL, the TNFα is reported as 29.40 ± 8.87 pg/mL, the cAMP was 22.25 ± 1.58 pmol/mL and the OxyDNA is 45.10 ± 3.76 ng/mL. In addition, in the data set with Obese Zucker rats [5], the HDL is listed as 65.71 mg/dL, the “Total Chol/HDL” value stood at 3.06 ratio, the “Total Cholesterol” value is 197.33 mg/dL and the Triglyceride is listed as 534.43 mg/dL.
Turning to “Chromium Picolinate + Biotin [CrP + Biotin]”, in the data set with Obese Zucker rats [1], the “ALT (Alanine Aminotransferease)” value came out at 100.71 u/L, the “AP (Alkaline phosphatase)” value is 64.00 u/L, the “AST (Aspartate Aminotransferase)” value is reported as 160.29 u/L and the “Anion Gap” value was 25.86. Also, in the data set with Obese Zucker rats [1], the “BUN (Blood Urea Nitrogen)” value stood at 19.14 mg/dL, the “BUN/CRT Ratio” value was 46.50, the “CRT (Creatinine)” value was 0.41 mg/dL and the “Total Bilirubin” value was found to be 0.10 mg/dL.
Regarding “Chromium tris(5-hydroxytryptophan) [Cr(5HTP)3]”, in the data set with Obese Zucker rats [2], the “RBC Lipid Peroxidase” value is recorded as 1.93 nmol/mL, the “Fasting Glucose” value came to 585.25 mg/dL, the GSH stood at 5.04 µmol/g and the HbA1c is listed as 16.15%. Besides, in the data set on Obese Zucker rats [7], the “ALT (Alanine Aminotransferease)” value amounted to 167.00 u/L, the “AP (Alkaline phosphatase)” value was 25.00 u/L, the “AST (Aspartate Aminotransferase)” value amounted to 267.43 u/L and the “Anion Gap” value is listed as 29.43. Also, in the data set on Obese Zucker rats [7], the “BUN (Blood Urea Nitrogen)” value came out at 22.86 mg/dL, the “BUN/CRT Ratio” value is recorded as 57.29, the “CRT (Creatinine)” value turned out to be 0.40 mg/dL and the “Total Bilirubin” value came to 0.10 mg/dL. In the data set on Obese Zucker rats [3], this substance came in with a Leptin of 359.61 pg/mL, an RBP-4 of 44517.99 ng/mL, an Adiponectin of 11831.51 ng/mL and a CRP of 589.26 ng/mL. Further, in the data set on Obese Zucker rats [3], the MCP-1 was found to be 1932.18 pg/mL. In the data set with Obese Zucker rats [4], this substance showed an IL-6 of 94.32 ± 11.71 pg/mL, a TNFα of 13.35 ± 8.28 pg/mL, a cAMP of 25.64 ± 2.39 pmol/mL and an OxyDNA of 45.89 ± 4.53 ng/mL. Also, in the data set with Obese Zucker rats [5], the HDL is recorded as 68.84 mg/dL, the “Total Chol/HDL” value turned out to be 2.72 ratio, the “Total Cholesterol” value amounted to 184.77 mg/dL and the Triglyceride is 452.96 mg/dL.
